Data taken from patent US12214036B2, “Combination therapy comprising AXL/MER and PD-1/PD-L1 inhibitors” (Incyte Corporation, priority 2020, dated 2025).

Target: T1, AXL (Homo sapiens, UniProt P30530)
T1 construct: recombinant phosphorylated forms of the kinase domains for AXL, MER and TYRO3; purchased ThermoFisher Scientific PV4275
T1 sequence (P30530 536-807 limits assumed): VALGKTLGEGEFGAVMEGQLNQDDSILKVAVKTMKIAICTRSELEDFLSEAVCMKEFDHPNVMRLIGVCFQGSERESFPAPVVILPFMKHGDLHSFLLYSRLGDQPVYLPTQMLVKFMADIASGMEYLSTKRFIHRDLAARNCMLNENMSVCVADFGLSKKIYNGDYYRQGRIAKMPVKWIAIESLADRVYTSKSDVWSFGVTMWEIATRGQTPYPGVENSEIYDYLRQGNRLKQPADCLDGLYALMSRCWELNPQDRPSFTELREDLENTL
Experiment: TR-FRET kinase assay, phospho-AXL
Type: biochemical
Conditions: average from multiple lots, n=18; read-out: IC50 against AXL
Experimental: The biochemical potency of Compound 1 to inhibit the enzymatic activity of TAM family members was investigated by TR-FRET assays using recombinant phosphorylated forms of the kinase domains for AXL, MER and TYRO3.
Phospho-AXL (pAXL), cMER and Tyro3 kinase activities were measured by time-resolved fluorescence energy transfer (TR-FRET) assays. Autophosphorylation of AXL was carried out before the kinase assay by incubating the recombinant AXL protein (ThermoFisher Scientific; #PV4275) in buffer containing 50 mM Tris, pH 7.5, 0.2 mg/mL AXL, 5 mM ATP, 20 mM MgCl2 and 2 mM dithiothreitol (DTT) at room temperature for 1 hour. The kinase assay buffer contained 50 mM HEPES, pH 7.5, 10 mM MgCl2, 1 mM EGTA, 0.01% NP-40 and 2 mM DTT. Enzyme solutions of 0.69 nM phospho-AXL, or 0.088 nM cMER (Carna Biosciences, Kobe, Japan; #08-108) or 0.137 nM TYRO3 (Life Technologies, PR7480A) were prepared in assay buffer. […] The plate was incubated for 30 minutes at room temperature, and homogenous time resolved fluorescence (HTRF) signal was measured on a PheraStar FS plate reader (BMG Labtech, Ortenberg, Germany). Percent inhibition was calculated for each concentration, and half maximal inhibitory concentration (IC50) value was generated from curve fitting with GraphPad Prism software (San Diego, Calif.).

With `CC(C)C(=O)N1CCC(c2cc(-c3ccc(NC(=O)c4cn(C(C)C)c(=O)n(-c5ccccn5)c4=O)cc3)c3c(N)ncnn23)CC1` [Compound 1, N-(4-(4-Amino-7-(1-isobutyrylpiperidin-4-yl)pyrrolo[1,2-f][1,2,4]triazin-5-yl)phenyl)-1-isopropyl-2,4-dioxo-3-(pyridin-2-yl)-1,2,3,4-tetrahydropyrimidine-5-carboxamide] the IC50 was 0.61 ± 0.31 nM.
